Experimental findings from a melting point compilation (Tetko et al.; mined from patent text by program, amines drawn as free bases though some values may be those of a salt) are described below.

For `COc1nc2ccccc2cc1NC(=O)N1CCN(c2cccc(OC(C)C)c2)CC1`, the melting point lay in the range of 111 to 113 °C.
In turn, `Cc1nn(C)c2ccc(C(=O)O)c(C3=NC(C)(C(C)C)C(=O)N3)c12` (centres undefined) yielded a melting point of 156 to 166 °C.
On to `CCC(CC)Oc1cc(C)nc2c1COCN2c1c(C)cc(Cl)cc1C`, for which the melting point lay within 190 to 192 °C.
Next, `CCOC(CNC1=Nc2sc(CC)cc2C(c2ccccc2Cl)=NC1)OCC`: 124 to 127 °C.
For `CSc1cc(C)nc(O)n1` the value was 165 °C.
Consider `CCOC(=O)c1cn(CCc2ccccc2)c2occc2c1=O`, for which the melting point lay within 139 to 140 °C.
Next, `Cc1ccc(S(=O)(=O)Nc2ccc(F)cc2)cc1`: 78 to 79.5 °C; `CN(C)C1(c2ccccc2)CCC2(OCCc3c2[nH]c2ccccc32)C(Sc2ccccc2)C1` (centres undefined): 228 to 233 °C; `c1ccc(Oc2ccncc2)cc1`: 46 to 49 °C.
Next, `Cc1cc(/C=C/C(=O)O)c(C)n1-c1ccc(C(=O)N(C)C)cc1`: 182 to 184 °C; `CC(=O)c1c(C)[nH]c(-c2ccc(Cl)cc2)c1N`: 205 to 208 °C.
Consider `COc1ccc2cc3c(=O)c(C#N)c[nH]c3cc2c1`, for which the melting point was greater than 265 °C.
Next, `O=C(C=Cc1ccc(C(F)(F)F)cc1)C=Cc1ccc(C(F)(F)F)cc1`: 148 to 150 °C.
For `O=C(c1ccc([N+](=O)[O-])cc1)N1Cc2ccccc2Sc2ccccc21` the value was 147 to 149 °C; for `COCCOc1ccc(C(=O)C(=O)O)cc1`, 129 to 130 °C; for `CCOP(C)(=O)CCNS(=O)(=O)c1ccc(C)cc1` (centres undefined), 124 to 126 °C.
Compound `Cn1nc(C(C)(C)c2ccc(Cl)cc2)nc1-c1c(F)cccc1Cl` had a melting point of 97 to 100 °C.
Next, `N=C(Nc1cccc([N+](=O)[O-])c1)N1CCCC1`: 117 to 118 °C.
Next, `CCOC(c1ccc(C=NO)cc1)(c1ccc2[nH]c(=O)cc(-c3cccc(Cl)c3)c2c1)c1cncn1C` (centres undefined): 232 °C.
On to `CCN(CC)c1ccc(NC(C)=O)c(C)c1`, for which the melting point lay in the range of 114 to 115 °C.
With `CCc1c(CC(N)=O)c2cc(OCCCC(N)=O)ccc2n1Cc1ccccc1`, the melting point lay within 176 to 179 °C.
The compound `CCOC(C)c1ccc(OCCCN2CCC(c3noc4cc(F)ccc34)CC2)c(OC)c1` (centres undefined) yielded a melting point of 139 °C.
Turning to `COC(=O)CNc1ccccc1C#N`, the melting point was 70 to 78 °C.
For `COCCOc1ccc(/C=C(\C)C(=O)O)c(Oc2ncc(Cl)cc2Cl)c1` the value was 126 to 127 °C; for `COc1ccc(CCNC(=O)CN(C(C)=O)c2cccc(C(N)=O)c2)cc1OC`, 111 to 113 °C; for `CCc1noc(-c2cn(-c3cccc(OC(C)C)c3)cn2)n1`, 107 °C.
With `CCOC(=O)NC(=O)C(=NNc1cc(Cl)c(C(C)(C)C#N)c(Cl)c1)C(=O)NC(=O)OCC`, the melting point worked out at 212 °C.
For `Cc1ccc(C(=O)c2ccc(F)cc2)nc1` the value was 127 to 128 °C; for `O=C1CC(c2ccccc2)CN1C(=O)c1ccc(Cl)cc1` (centres undefined), 157 to 158 °C.
For `N#CC12CCN(CC1)CC2Cc1ccccc1` (centres undefined) the value was 82.5 to 84 °C; for `CCOC(=O)CNC(=O)N(N(CCCl)S(C)(=O)=O)S(C)(=O)=O`, 121 to 122 °C.
For `CCc1nc(C#N)c(N2CCN(c3ccccc3)CC2)nc1C` the value was 99 to 101 °C.
The compound `c1ccc2c(CSCc3cccc4ccccc34)cccc2c1` gave a melting point of 104 to 106 °C.
Compound `O=[N+]([O-])c1ccc(CSc2cc(Cl)nc3c2ncn3C2OC(CO)C(O)C2O)cc1` (centres undefined) showed a melting point of 162 to 165 °C.
In turn, `CC1=CC(C=O)(NC(c2ccccc2)(c2ccccc2)c2ccccc2)NC=C1` (centres undefined) returned a melting point of 213 °C.
For `CN(C)c1ccc(-c2nc(Cl)c(CC#N)n2Cc2ccccc2)cc1Cl`, the melting point was in the range of 142 to 143 °C.
In turn, `COc1ccc(Cn2c(C)c(C=O)c3cnnc(OCc4ccccc4)c32)cc1` yielded a melting point of 139 to 145 °C.
`CCNc1nc(C#N)c(C#N)nc1-c1cccc(F)c1` gave a melting point of 126 to 127 °C.
For `N/C(=C1/Sc2ccccc2C1=O)c1ccc(F)cc1` the value was 158 °C.
In turn, `N#Cc1c(-c2ccc(Cl)c(Cl)c2)[nH]c(C(F)(F)F)c1C(F)(F)F` showed a melting point of 205 to 208 °C.
`COCc1cnn2c(-c3cccc(C(F)(F)F)c3)ccnc12` yielded a melting point of 114 to 116 °C.
`Cc1nc(C(C)(O)c2nc(C)c(C)s2)sc1C` registered a melting point of 143 to 144 °C.
For `OC(COCc1ccccc1)C(O)COCc1ccccc1` (single isomer, unassigned; (+)) the value was 44 to 45 °C; for `CC(C)(C)c1ccn(-c2ccc(C(=O)c3cccc4c3Nc3ncccc3CN4)c(C(F)(F)F)c2)n1`, 136 to 140 °C.
`O=c1c2cc(F)c(Cl)nc2n(-c2ccc(F)cc2)c(=O)n1OCc1ccccc1` displayed a melting point of 208 to 209 °C.
For `CCOC(=O)COc1cccc(C(N)=O)c1`, the melting point lay in the range of 158 to 159 °C.
Take `COc1ccc(Br)c(C(=O)N2CCN(S(=O)(=O)c3ccccc3)CC2)c1`: the melting point was 180 °C.
With `Nc1cc(=O)n(Cc2ccc(I)cc2)[nH]1`, the melting point amounted to 158 °C.
In turn, `CCCCOCCOc1ccc(-c2ccc3c(c2)C=C(C(=O)O)CCN3c2ccc(S(=O)(=O)N(C)C)cc2)cc1` registered a melting point of 236 to 238 °C.
For `CC(C)n1c(CCN2CCN(c3cccc(C(F)(F)F)c3)CC2)nc2cc(Br)c3ccccc3c21` the value was 161 to 162 °C.
In the case of `CCCCCC(=O)c1c(CN(CC)CC)nc2cc(OC)c(OC)cc2c1-c1ccc(OC)c(OC)c1`, the melting point lay in the range of 104 to 106 °C.
Next, `C#CC1C2=C(C(=O)CCC2)c2ccc(OC(=O)C(C)(C)C)cc2N1C(=O)Oc1ccccc1` (centres undefined): 140 to 142 °C.
Compound `O=C(Nc1cccc(-c2ccnc3c(C(=O)c4cccs4)cnn23)c1)c1cn[nH]c1` displayed a melting point of 165 to 170 °C.
`FC(F)(F)c1ccc2nccc(Br)c2c1` showed a melting point of 56 °C.
Next, `COc1ccc2c(c1)CCC(=Cc1ccc(OCCCN(C)C)cc1)C2=O`: 68 to 71 °C.
`CCCOCC1(c2onc(-c3ccc(O)cc3)c2-c2ccccc2)CC1` displayed a melting point of 111 to 112 °C.
For `COc1ccc2c(c1)c1c3c(c(-c4ccccc4)cc1n2CCC(N)=O)C(=O)NC3=O` the value was 266 to 270 °C; for `CC(C(=O)N(C)C)n1cc(I)c(-c2ccccc2)n1` (centres undefined), 108 to 111 °C; for `CCc1oc2ccccc2c1C(=O)c1ccc(OCC(=O)O)cc1`, 172 to 175 °C.
For `CCOC(=O)C(C)c1ccc(-c2ccc(F)cc2F)c(O)c1` (centres undefined), the melting point lay in the range of 72 to 73 °C.
Next, `O=C(O)c1ccccc1OCCCCCOc1ccccc1C(=O)O`: 105 to 106 °C; `CC1(C)OC(=O)Nc2ccc(-c3cccc(Cl)c3)cc21`: 158 to 159 °C; `C=CCOC(=O)c1ccc(S(C)=O)c([N+](=O)[O-])c1` (centres undefined): 119 to 121 °C.
`CNC(=O)n1nc(Oc2ncc(C(F)(F)F)cc2Cl)c(Cl)c1C` showed a melting point of 81 to 83 °C.
For `CCCCCCCCCCCC(=O)NCCCCCC(=O)O` the value was 85 to 86 °C; for `CCN1C(=O)C(C)(C)C(=O)N(C)c2cc(CN(CCn3ccc4oc(C)cc4c3=O)C(C)c3cccnc3)ccc21` (centres undefined), 128 to 132 °C.
Next, `ClC1(Cl)C(Cl)(Cl)C1(Cl)c1ccccn1`: 132 to 134 °C; `CCOC(=O)C1(Sc2ccccc2)Cc2ccc(N(C)C)cc2NC1=O` (centres undefined): 134 to 139 °C.
The compound `CCOC(=O)c1c(N2CCNCC2)c2cccnc2n(Cc2ccccc2)c1=O` displayed a melting point of 120 °C.
`CC(=O)OC(c1ccc(NC(=O)c2ccc(-c3ccc(Cl)cc3)cc2)cc1)C1CCCNC1` (centres undefined) gave a melting point of 200 to 203 °C.
For `CCCCn1c(CO)nc2cnc3ccccc3c21`, the melting point was in the range of 146 to 149 °C.
For `CN(C)C=Nn1cc(-c2ccc([N+](=O)[O-])o2)nn1` the value was 239 to 241 °C.
The compound `Nc1nc2[nH]c(CCCCCc3ccc(C(=O)N[C@@H](CCC(=O)O)C(=O)O)s3)cc2c(=O)[nH]1` gave a melting point of 181 to 182 °C.
Regarding `CC(=Cc1ccc(O)c(Br)c1)[N+](=O)[O-]`, the melting point fell in the range of 122 to 124 °C.
As to `COc1cc(N(C)C)ccc1CN1C(=O)C(C)(c2ccccc2Cl)c2cc(Cl)ccc21` (centres undefined), the melting point turned out to be 135 °C.
As for `NS(=O)(=O)c1ccc(-n2nccc2-c2ccc(Cl)cc2)cc1`, the melting point lay within 185 to 187 °C.
Next, `COc1cc(CC(=O)c2c(O)c3cccnc3n(-c3ccccc3)c2=O)cc(OC)c1`: 170 to 171 °C.
Next, `CC(=O)c1ccc(NS(C)(=O)=O)c(Oc2ccccc2F)c1`: 92 to 94 °C.
For `COc1ccccc1N1CCN(CCCCN2CCN(c3cccc(Cl)c3)C2=O)CC1` the value was 87 to 89 °C; for `O=C(/C=C/c1cccc(S(=O)(=O)N2CCN(c3cccc(C(F)(F)F)c3)CC2)c1)NO`, 173 °C; for `CC(C)Oc1ccc2c(c1)N(C)C(=O)N(c1ccc(Cl)cc1)S2(=O)=O`, 157 to 159 °C.
Compound `O=C1COc2ccc(CO)cc2N1` came in with a melting point of 186 to 187 °C.
For `CN1CCN(c2cccc3ccc(Nc4ncccc4N)cc23)CC1` the value was 198 to 200 °C.
For `Cc1oc(-c2ccccc2)nc1COc1ccc2c(-c3ccccc3)c(COc3nn(-c4ccccc4)cc3CO)oc2c1` the value was 118 to 119 °C; for `CC1=CC(=Nc2nccs2)C(C)C(C)=C1O` (centres undefined), 95 to 96 °C.
Regarding `CCOC(=O)c1cc(C)c2c(c1)c1ccccc1n2Cc1ccccc1`, the melting point lay in the range of 118 to 119 °C.
Next, `CC(C)(C)NC(=O)[C@@H]1C[C@H](F)CN1C(=O)[C@@H](O)[C@H](Cc1ccccc1)NC(=O)[C@H](CC(N)=O)NC(=O)OCc1ccccc1`: 95 to 100 °C; `O=C(Cc1noc2ccccc12)NS(=O)(=O)c1ccc(Cl)cc1`: 209 to 211 °C.
For `Cc1cc(N(C)C)nc2ccc(Br)cc12`, the melting point lay within 81.9 to 84.1 °C.

By melting point is commonly meant the temperature of the solid-liquid transition.
